Laboratory results from ChEMBL document CHEMBL1201862, “PubChem BioAssay data set” (2004).
Values joined by “and” are separate entries in the source; they are usually repeats but may differ in a detail not shown here. Identical values can stand only once. Active and inactive are the calls of the source.

Assays:
Vero [1] = experiment: Vero 76 cell viability after compound exposure – Vero 76 cells, synthesized analogs, cytotoxicity control for West Nile virus antiviral project, SAR follow-up (AID 2414); format: functional, Chlorocebus sabaeus
Vero [2] = experiment: Vero cell viability after compound exposure – synthesized analogs, set II, cytotoxicity control for West Nile virus antiviral project, SAR follow-up (AID 2402); format: functional, Chlorocebus sabaeus
Vero [3] = experiment: host cell viability loss, Vero E6 – synthesized analogs, cytotoxicity control for West Nile virus antiviral project, SAR follow-up (AID 2244); format: functional; conditions: Chlorocebus sabaeus
[4] = A Cell Based Assay for the Identification of Probe candidate Compounds with Anti- Venezuelan Equine Encephalitis virus. [Related pubchem assays: 2409, 2419, 1621, 2238, 2405, 2024, 2065, 2402, 2414, 1635, 1650, 2244 ]; format: functional
Vero [5] = experiment: antiviral protection of cells from WNV – synthesized analogs, SAR follow-up (AID 2238); format: functional, cell-based; conditions: Chlorocebus sabaeus
Vero [6] = experiment: antiviral activity against WNV, CPE read-out – cell-based (AID 2419); format: functional; conditions: Chlorocebus sabaeus
Vero [7] = experiment: inhibition of WNV-induced cytopathic effect – cell-based, CPE readout (AID 1621); format: functional; conditions: Chlorocebus sabaeus
[8] = molecular target: T1, Eukaryotic translation initiation factor 4H (Homo sapiens, UniProt Q15056); experiment: eIF4H binding inhibition – biochemical, uHTS, fluorescence polarization, translation initiation inhibitor project, primary screen (AID 2012)
[9] = molecular target: T2, Polyadenylate-binding protein 1 (Homo sapiens, UniProt P11940); experiment: blockers of PABP interaction with poly(A) – biochemical, fluorescence polarization, […] (AID 2014)
T2 sequence (P11940 whole entry): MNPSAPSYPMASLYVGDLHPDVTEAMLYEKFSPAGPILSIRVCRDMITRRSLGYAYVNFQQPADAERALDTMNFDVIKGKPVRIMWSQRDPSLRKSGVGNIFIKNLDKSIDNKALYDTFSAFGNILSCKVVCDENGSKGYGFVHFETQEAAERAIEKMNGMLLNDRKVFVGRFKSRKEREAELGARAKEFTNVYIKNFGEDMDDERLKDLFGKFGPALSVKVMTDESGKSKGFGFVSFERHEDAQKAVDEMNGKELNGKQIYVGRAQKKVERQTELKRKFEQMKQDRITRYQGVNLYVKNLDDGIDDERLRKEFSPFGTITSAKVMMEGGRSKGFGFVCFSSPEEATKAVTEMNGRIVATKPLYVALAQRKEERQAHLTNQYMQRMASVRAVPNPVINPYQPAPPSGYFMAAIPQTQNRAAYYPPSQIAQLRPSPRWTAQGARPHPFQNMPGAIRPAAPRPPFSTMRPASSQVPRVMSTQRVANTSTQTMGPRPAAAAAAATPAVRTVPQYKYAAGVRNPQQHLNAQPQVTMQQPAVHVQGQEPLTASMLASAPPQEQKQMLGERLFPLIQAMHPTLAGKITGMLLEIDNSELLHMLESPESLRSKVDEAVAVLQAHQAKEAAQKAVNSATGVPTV

[10] = molecular target: T1, Eukaryotic translation initiation factor 4H; experiment: inhibitors of translation initiation factor eIF4H – SAR follow-up (AID 435011); format: functional
[11] = molecular target: T2, Polyadenylate-binding protein 1; experiment: PABP inhibition in translation initiation, SAR follow-up (AID 435018); format: functional
[12] = molecular target: T3, G-protein coupled receptor 35 (Homo sapiens, UniProt Q9HC97); experiment: SAR analysis of Antagonists of the GPR35 Receptor using an Image-Based Assay - Set 5. [Related pubchem assays (depositor defined):AID2058, AID2079]; format: functional
T3 sequence (Q9HC97 whole entry): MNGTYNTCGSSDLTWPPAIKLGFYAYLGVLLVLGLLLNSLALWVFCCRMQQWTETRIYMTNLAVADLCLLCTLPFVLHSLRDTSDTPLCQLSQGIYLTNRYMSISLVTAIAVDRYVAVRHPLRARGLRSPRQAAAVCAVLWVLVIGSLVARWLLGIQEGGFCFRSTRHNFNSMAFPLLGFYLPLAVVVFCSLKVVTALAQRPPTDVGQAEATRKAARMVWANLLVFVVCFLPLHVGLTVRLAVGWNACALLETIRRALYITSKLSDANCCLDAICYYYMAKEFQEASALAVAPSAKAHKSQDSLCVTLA

[13] = molecular target: T3, G-protein coupled receptor 35; experiment: SAR Analysis for the identification of Selective Antagonists of ERK1/2 Activity in GPR35-Overexpressing U2OS Cells - Set 2. [Related pubchem assays (depositor defined):AID2058, AID2079]; format: functional, cell-based
[14] = molecular target: G-protein coupled receptor 55 (Homo sapiens, UniProt Q9Y2T6); experiment: SAR Analysis of Selective Antagonists of GPR55 using an Image-Based Assay - Set 3. [Related pubchem assays (depositor defined):AID2058, AID2079]; format: functional
Chain of G-protein coupled receptor 55 (Q9Y2T6 whole entry): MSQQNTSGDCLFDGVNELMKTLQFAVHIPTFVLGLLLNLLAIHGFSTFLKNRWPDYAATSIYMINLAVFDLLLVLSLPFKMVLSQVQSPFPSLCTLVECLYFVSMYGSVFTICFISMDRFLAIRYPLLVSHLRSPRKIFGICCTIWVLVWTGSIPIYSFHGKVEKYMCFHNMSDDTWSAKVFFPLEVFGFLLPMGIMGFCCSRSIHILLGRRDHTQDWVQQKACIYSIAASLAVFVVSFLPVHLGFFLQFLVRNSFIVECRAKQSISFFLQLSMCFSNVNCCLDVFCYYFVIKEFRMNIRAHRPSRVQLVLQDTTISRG

Nonstructural protein 1 = Nonstructural protein 1 (Influenza A virus, UniProt Q194T2); format: functional, Influenza A virus (A/California/07/2009(H1N1))
Chain of Nonstructural protein 1 (Q194T2 whole entry): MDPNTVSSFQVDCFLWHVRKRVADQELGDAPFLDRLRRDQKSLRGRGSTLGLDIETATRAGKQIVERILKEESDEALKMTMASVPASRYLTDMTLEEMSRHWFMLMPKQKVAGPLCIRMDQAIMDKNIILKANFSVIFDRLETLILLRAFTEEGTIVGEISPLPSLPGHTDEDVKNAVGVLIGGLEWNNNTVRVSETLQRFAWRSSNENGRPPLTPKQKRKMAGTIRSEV

Hexokinase HKDC1 = molecular target: T4, Hexokinase HKDC1 (Homo sapiens, UniProt Q2TB90); experiment: inhibition of HKDC1 glucose phosphorylation – biochemical, W721R variant, dose response (AID 504729); format: functional
T4 sequence (Q2TB90 whole entry): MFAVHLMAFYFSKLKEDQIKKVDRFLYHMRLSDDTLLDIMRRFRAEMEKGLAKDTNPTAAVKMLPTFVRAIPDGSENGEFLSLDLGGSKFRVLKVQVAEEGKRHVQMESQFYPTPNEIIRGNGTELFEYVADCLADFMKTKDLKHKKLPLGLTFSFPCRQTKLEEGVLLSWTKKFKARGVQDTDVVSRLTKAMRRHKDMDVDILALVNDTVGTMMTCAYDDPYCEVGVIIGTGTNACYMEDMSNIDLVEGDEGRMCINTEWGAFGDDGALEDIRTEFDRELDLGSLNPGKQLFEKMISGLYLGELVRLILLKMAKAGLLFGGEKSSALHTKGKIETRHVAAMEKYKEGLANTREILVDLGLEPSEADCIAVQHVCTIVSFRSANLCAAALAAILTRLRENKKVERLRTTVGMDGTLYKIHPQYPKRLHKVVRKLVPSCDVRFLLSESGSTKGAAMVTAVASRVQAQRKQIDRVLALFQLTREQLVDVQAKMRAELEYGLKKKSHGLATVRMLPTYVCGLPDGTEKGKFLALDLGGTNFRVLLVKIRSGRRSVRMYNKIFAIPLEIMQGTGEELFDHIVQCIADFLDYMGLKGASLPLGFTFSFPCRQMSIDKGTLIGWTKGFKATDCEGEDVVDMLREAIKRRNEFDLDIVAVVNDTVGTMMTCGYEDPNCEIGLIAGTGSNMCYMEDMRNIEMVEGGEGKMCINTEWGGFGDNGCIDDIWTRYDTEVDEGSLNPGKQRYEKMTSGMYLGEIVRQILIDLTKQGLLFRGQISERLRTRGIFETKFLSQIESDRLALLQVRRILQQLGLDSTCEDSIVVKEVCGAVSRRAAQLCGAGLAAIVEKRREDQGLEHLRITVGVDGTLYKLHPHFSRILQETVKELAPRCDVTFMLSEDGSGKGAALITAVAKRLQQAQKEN

Hexokinase-1 = molecular target: T5, Hexokinase-1 (Homo sapiens, UniProt P19367); experiment: HK1 enzyme activation by HKDC1 hits – biochemical, selectivity assay for HKDC1 activator project, dose response (AID 504762); format: functional
T5 sequence (P19367 whole entry): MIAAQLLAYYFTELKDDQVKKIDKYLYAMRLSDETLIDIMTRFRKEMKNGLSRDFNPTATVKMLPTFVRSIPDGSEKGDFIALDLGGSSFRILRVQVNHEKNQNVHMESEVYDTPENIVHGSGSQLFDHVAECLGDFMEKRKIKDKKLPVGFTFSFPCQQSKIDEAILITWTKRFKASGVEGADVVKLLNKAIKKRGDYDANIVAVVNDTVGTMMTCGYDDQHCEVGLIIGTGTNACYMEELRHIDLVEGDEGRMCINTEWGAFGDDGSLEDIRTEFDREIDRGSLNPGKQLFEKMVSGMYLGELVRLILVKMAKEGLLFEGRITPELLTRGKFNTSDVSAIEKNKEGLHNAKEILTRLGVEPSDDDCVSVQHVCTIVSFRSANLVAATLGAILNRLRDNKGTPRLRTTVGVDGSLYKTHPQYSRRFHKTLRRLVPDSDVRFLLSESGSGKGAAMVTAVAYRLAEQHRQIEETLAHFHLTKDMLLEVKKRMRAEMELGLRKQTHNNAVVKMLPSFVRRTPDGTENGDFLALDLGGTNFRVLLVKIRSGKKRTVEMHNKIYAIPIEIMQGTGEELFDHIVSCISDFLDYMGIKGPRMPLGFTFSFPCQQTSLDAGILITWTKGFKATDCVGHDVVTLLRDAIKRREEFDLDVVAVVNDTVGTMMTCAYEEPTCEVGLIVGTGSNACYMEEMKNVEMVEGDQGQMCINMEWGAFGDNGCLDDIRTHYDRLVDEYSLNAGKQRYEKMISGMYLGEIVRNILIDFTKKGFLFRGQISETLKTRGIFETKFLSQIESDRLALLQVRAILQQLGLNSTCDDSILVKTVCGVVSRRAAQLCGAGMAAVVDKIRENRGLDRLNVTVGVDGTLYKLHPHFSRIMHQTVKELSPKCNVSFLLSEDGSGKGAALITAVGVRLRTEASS

[15] = molecular target: T6, Rac GTPase-activating protein 1 (Homo sapiens, UniProt Q9H0H5); experiment: blockers of MgcRacGAP-driven Rac1 GTP hydrolysis – biochemical, ADP Hunter fluorescence, primary and confirmatory, confirmation (AID 624330); format: functional
T6 sequence (Q9H0H5 whole entry): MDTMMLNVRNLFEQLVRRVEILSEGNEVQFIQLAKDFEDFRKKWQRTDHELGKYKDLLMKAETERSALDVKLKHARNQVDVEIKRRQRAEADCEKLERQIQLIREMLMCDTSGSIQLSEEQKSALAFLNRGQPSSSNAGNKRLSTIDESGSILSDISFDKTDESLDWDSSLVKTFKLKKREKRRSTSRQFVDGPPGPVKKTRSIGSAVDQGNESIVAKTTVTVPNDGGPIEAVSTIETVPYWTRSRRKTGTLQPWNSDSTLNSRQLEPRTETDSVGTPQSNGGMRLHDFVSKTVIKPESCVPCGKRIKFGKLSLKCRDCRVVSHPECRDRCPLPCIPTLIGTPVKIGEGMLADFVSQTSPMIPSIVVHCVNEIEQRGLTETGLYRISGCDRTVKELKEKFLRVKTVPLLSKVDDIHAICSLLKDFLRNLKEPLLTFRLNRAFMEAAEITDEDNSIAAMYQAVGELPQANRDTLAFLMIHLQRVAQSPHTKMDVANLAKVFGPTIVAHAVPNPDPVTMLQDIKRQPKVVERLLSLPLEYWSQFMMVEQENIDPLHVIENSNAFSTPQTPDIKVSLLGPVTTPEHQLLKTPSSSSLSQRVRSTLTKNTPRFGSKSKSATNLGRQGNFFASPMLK

[16] = molecular target: T7, E3 ubiquitin-protein ligase XIAP (Homo sapiens, UniProt P98170); experiment: Counter Screen using XIAP-Bir3 for Chemical Antagonists of Bir1/2 domains of IAP-family anti-apoptotic proteins. [Related pubchem assays (depositor defined):AID1018, AID1449, AID1514, AID1638, AID1749, AID1750, AID488957, AID488963]
T7 sequence (P98170 whole entry): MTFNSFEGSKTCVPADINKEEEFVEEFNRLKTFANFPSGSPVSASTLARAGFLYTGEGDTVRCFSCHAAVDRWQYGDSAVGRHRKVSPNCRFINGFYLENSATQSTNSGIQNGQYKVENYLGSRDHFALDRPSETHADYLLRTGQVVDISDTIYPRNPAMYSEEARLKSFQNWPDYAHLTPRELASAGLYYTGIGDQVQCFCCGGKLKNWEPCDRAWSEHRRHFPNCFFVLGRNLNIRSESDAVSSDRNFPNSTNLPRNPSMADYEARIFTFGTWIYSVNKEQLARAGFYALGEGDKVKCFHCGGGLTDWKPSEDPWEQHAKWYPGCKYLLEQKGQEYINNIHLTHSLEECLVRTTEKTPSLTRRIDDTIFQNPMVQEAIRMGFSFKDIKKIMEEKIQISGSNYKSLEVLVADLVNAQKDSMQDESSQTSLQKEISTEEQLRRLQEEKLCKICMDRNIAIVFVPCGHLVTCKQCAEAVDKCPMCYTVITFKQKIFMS

[17] = molecular target: T7, E3 ubiquitin-protein ligase XIAP; experiment: small molecules displacing peptide from XIAP – biochemical, IAP family, fluorescence polarization (AID 1018); format: functional

With `Brc1ccc2c(c1)CN1CCCC1=N2` the CC50 (Vero [1]) was 124 µM (active), the CC50 (Vero [1]; Chlorocebus sabaeus, Vero) was > 66.6 µM (active) and the CC50 (Vero [2]) was 197 µM (active). The CC50 (Vero [2]; Chlorocebus sabaeus, Vero) was > 100 µM (active), the CC50 (Vero [3]) was > 40 µM (active) and the IC50 [4] was > 66.6 µM (active) and 60.3 µM (active). The IC50 (Vero [5]) was 38.9 µM (active), the IC50 (Vero [6]) was 16.8 µM (active) and the IC50 (Vero [7]) was 19.7 µM (active).
For `COc1ccc(OC)c(NC(=O)CSc2ccc(-c3ccco3)nn2)c1`, the IC50 [8] was 16.1 µM (active), the IC50 [9] was 93.4 µM (active) and the IC50 [10] was 48.7 µM (active). The IC50 [11] was > 100 µM (inactive).
With `COC(=O)c1cnn(-c2ccc(Cl)cc2)c1/C=N/NC(=S)Nc1ccccc1` the IC50 [12] was 0.211 µM (active), the IC50 [13] was 21.8 µM (inactive) and the IC50 [14] was > 32 µM (inactive).
For `Oc1ccc(/C=N/NC(=S)Nc2cccnc2)c(O)c1`, the IC50 (Nonstructural protein 1) was 1.82 µM (active), the IC50 (Hexokinase HKDC1) was > 80 µM (inactive) and the EC50 (Hexokinase-1) was > 80 µM (inactive). The IC50 [15] was 40.5 µM (active).
For `CCOCCCNC(=O)c1cn(CC(C)C)c(=O)c2cc(OC)c(OC)cc12`, the IC50 [16] was > 100 µM (inactive) and the IC50 [17] was > 100 µM (not active).
